From the NIST ThermoML archive (doi:10.1021/acs.jced.7b00201)
Numbers after ± are expanded uncertainties.

Assay: xn = mol fraction of the nth substance listed
Settings: 100 kPa, Liquid; for viscosity: Falling or rolling sphere viscometry; for mass density: Vibrating tube method

OCC1CC1 [cyclopropylmethanol] + CCCCC1CCCCC1
Settings	mass density [kg/m3]	viscosity [mPa·s]
293.15 K, x1 = 0.1039	803.82 ± 1	1.319 ± 0.028
293.15 K, x1 = 0.2031	809.39 ± 1	1.383 ± 0.029
293.15 K, x1 = 0.3022	815.9 ± 1	1.475 ± 0.031
293.15 K, x1 = 0.3997	823.34 ± 1	1.602 ± 0.034
293.15 K, x1 = 0.4993	832.12 ± 1	1.778 ± 0.038
293.15 K, x1 = 0.5994	842.55 ± 1	2.006 ± 0.043
293.15 K, x1 = 0.7	855.1 ± 1	2.299 ± 0.049
293.15 K, x1 = 0.797	869.68 ± 1	2.67 ± 0.057
293.15 K, x1 = 0.9004	889.05 ± 1	3.23 ± 0.069
293.15 K, x1 = 1	912.99 ± 1	4.029 ± 0.086
298.15 K, x1 = 0.1039	800.02 ± 1	1.212 ± 0.026
298.15 K, x1 = 0.2031	805.52 ± 1	1.265 ± 0.027
298.15 K, x1 = 0.3022	812 ± 1	1.343 ± 0.029
298.15 K, x1 = 0.3997	819.39 ± 1	1.451 ± 0.031
298.15 K, x1 = 0.4993	828.15 ± 1	1.601 ± 0.034
298.15 K, x1 = 0.5994	838.56 ± 1	1.79 ± 0.038
298.15 K, x1 = 0.7	851.09 ± 1	2.038 ± 0.044
298.15 K, x1 = 0.797	865.66 ± 1	2.355 ± 0.05
298.15 K, x1 = 0.9004	885.02 ± 1	2.821 ± 0.06
298.15 K, x1 = 1	908.94 ± 1	3.485 ± 0.075
303.15 K, x1 = 0.1039	796.16 ± 1	1.117 ± 0.024
303.15 K, x1 = 0.2031	801.61 ± 1	1.162 ± 0.025
303.15 K, x1 = 0.3022	808.04 ± 1	1.228 ± 0.026
303.15 K, x1 = 0.3997	815.4 ± 1	1.319 ± 0.028
303.15 K, x1 = 0.4993	824.14 ± 1	1.448 ± 0.031
303.15 K, x1 = 0.5994	834.52 ± 1	1.607 ± 0.034
303.15 K, x1 = 0.7	847.04 ± 1	1.817 ± 0.039
303.15 K, x1 = 0.797	861.6 ± 1	2.084 ± 0.045
303.15 K, x1 = 0.9004	880.95 ± 1	2.48 ± 0.053
303.15 K, x1 = 1	904.85 ± 1	3.037 ± 0.065
308.15 K, x1 = 0.1039	792.28 ± 1	1.034 ± 0.022
308.15 K, x1 = 0.2031	797.68 ± 1	1.072 ± 0.023
308.15 K, x1 = 0.3022	804.06 ± 1	1.128 ± 0.024
308.15 K, x1 = 0.3997	811.39 ± 1	1.205 ± 0.026
308.15 K, x1 = 0.4993	820.09 ± 1	1.315 ± 0.028
308.15 K, x1 = 0.5994	830.45 ± 1	1.45 ± 0.031
308.15 K, x1 = 0.7	842.95 ± 1	1.628 ± 0.035
308.15 K, x1 = 0.797	857.5 ± 1	1.855 ± 0.04
308.15 K, x1 = 0.9004	876.84 ± 1	2.192 ± 0.047
308.15 K, x1 = 1	900.74 ± 1	2.661 ± 0.057
313.15 K, x1 = 0.1039	788.38 ± 1	0.96 ± 0.02
313.15 K, x1 = 0.2031	793.72 ± 1	0.984 ± 0.021
313.15 K, x1 = 0.3022	800.06 ± 1	1.04 ± 0.022
313.15 K, x1 = 0.3997	807.34 ± 1	1.106 ± 0.024
313.15 K, x1 = 0.4993	816.02 ± 1	1.198 ± 0.026
313.15 K, x1 = 0.5994	826.34 ± 1	1.314 ± 0.028
313.15 K, x1 = 0.7	838.82 ± 1	1.466 ± 0.031
313.15 K, x1 = 0.797	853.35 ± 1	1.659 ± 0.036
313.15 K, x1 = 0.9004	872.69 ± 1	1.947 ± 0.042
313.15 K, x1 = 1	896.58 ± 1	2.344 ± 0.05
318.15 K, x1 = 0.1039	784.47 ± 1	0.895 ± 0.019
318.15 K, x1 = 0.2031	789.74 ± 1	0.919 ± 0.02
318.15 K, x1 = 0.3022	796.03 ± 1	0.963 ± 0.021
318.15 K, x1 = 0.3997	803.27 ± 1	1.019 ± 0.022
318.15 K, x1 = 0.4993	811.9 ± 1	1.098 ± 0.023
318.15 K, x1 = 0.5994	822.19 ± 1	1.197 ± 0.026
318.15 K, x1 = 0.7	834.65 ± 1	1.327 ± 0.028
318.15 K, x1 = 0.797	849.17 ± 1	1.491 ± 0.032
318.15 K, x1 = 0.9004	868.5 ± 1	1.735 ± 0.037
318.15 K, x1 = 1	892.38 ± 1	2.074 ± 0.044
323.15 K, x1 = 0.1039	780.53 ± 1	0.837 ± 0.018
323.15 K, x1 = 0.2031	785.74 ± 1	0.861 ± 0.018
323.15 K, x1 = 0.3022	791.97 ± 1	0.894 ± 0.019
323.15 K, x1 = 0.3997	799.16 ± 1	0.941 ± 0.02
323.15 K, x1 = 0.4993	807.75 ± 1	1.01 ± 0.022
323.15 K, x1 = 0.5994	818.01 ± 1	1.094 ± 0.023
323.15 K, x1 = 0.7	830.44 ± 1	1.205 ± 0.026
323.15 K, x1 = 0.797	844.94 ± 1	1.345 ± 0.029
323.15 K, x1 = 0.9004	864.26 ± 1	1.555 ± 0.033
323.15 K, x1 = 1	888.13 ± 1	1.843 ± 0.04
328.15 K, x1 = 0.1039	776.57 ± 1	0.784 ± 0.017
328.15 K, x1 = 0.2031	781.71 ± 1	0.808 ± 0.017
328.15 K, x1 = 0.3022	787.87 ± 1	0.832 ± 0.018
328.15 K, x1 = 0.3997	795.01 ± 1	0.873 ± 0.019
328.15 K, x1 = 0.4993	803.56 ± 1	0.931 ± 0.02
328.15 K, x1 = 0.5994	813.78 ± 1	1.003 ± 0.021
328.15 K, x1 = 0.7	826.18 ± 1	1.098 ± 0.023
328.15 K, x1 = 0.797	840.66 ± 1	1.22 ± 0.026
328.15 K, x1 = 0.9004	859.97 ± 1	1.399 ± 0.03
328.15 K, x1 = 1	883.84 ± 1	1.646 ± 0.035
333.15 K, x1 = 0.1039	772.6 ± 1	0.736 ± 0.016
333.15 K, x1 = 0.2031	777.65 ± 1	0.758 ± 0.016
333.15 K, x1 = 0.3022	783.75 ± 1	0.777 ± 0.017
333.15 K, x1 = 0.3997	790.83 ± 1	0.812 ± 0.017
333.15 K, x1 = 0.4993	799.33 ± 1	0.862 ± 0.018
333.15 K, x1 = 0.5994	809.5 ± 1	0.923 ± 0.02
333.15 K, x1 = 0.7	821.87 ± 1	1.005 ± 0.022
333.15 K, x1 = 0.797	836.33 ± 1	1.109 ± 0.024
333.15 K, x1 = 0.9004	855.62 ± 1	1.264 ± 0.027
333.15 K, x1 = 1	879.49 ± 1	1.476 ± 0.032
338.15 K, x1 = 0.1039	768.6 ± 1	0.697 ± 0.015
338.15 K, x1 = 0.2031	773.56 ± 1	0.718 ± 0.015
338.15 K, x1 = 0.3022	779.59 ± 1	0.733 ± 0.016
338.15 K, x1 = 0.3997	786.61 ± 1	0.767 ± 0.016
338.15 K, x1 = 0.4993	795.05 ± 1	0.801 ± 0.017
338.15 K, x1 = 0.5994	805.18 ± 1	0.853 ± 0.018
338.15 K, x1 = 0.7	817.51 ± 1	0.923 ± 0.02
338.15 K, x1 = 0.797	831.94 ± 1	1.012 ± 0.022
338.15 K, x1 = 0.9004	851.21 ± 1	1.146 ± 0.025
338.15 K, x1 = 1	875.07 ± 1	1.328 ± 0.028
343.15 K, x1 = 0.1039	764.58 ± 1	0.656 ± 0.014
343.15 K, x1 = 0.2031	769.4 ± 1	0.668 ± 0.014
343.15 K, x1 = 0.3022	775.39 ± 1	0.684 ± 0.015
343.15 K, x1 = 0.3997	782.35 ± 1	0.709 ± 0.015
343.15 K, x1 = 0.4993	790.73 ± 1	0.746 ± 0.016
343.15 K, x1 = 0.5994	800.8 ± 1	0.79 ± 0.017
343.15 K, x1 = 0.7	813.09 ± 1	0.85 ± 0.018
343.15 K, x1 = 0.797	827.49 ± 1	0.928 ± 0.02
343.15 K, x1 = 0.9004	846.74 ± 1	1.043 ± 0.022
343.15 K, x1 = 1	870.62 ± 1	1.201 ± 0.026
